The test system of this assay is clinical isolate of C. krusei (225/2). Briefly: Antifungal microdilution assay, C. krusei. It counts as cell-based, Candida krusei. The following applies: 24 h; for inhibition of the growth: C. krusei. As to the method: The clinical isolates of Candida albicans (v47a3), C. krusei (225/2) and C. glabrata (252/2) were collected from patients with human immunodeficiency virus (HIV) infection and provided by G.N. Gabrichevsky Research Institute for Epidemiology and Microbiology (Moscow, Russia). Strains stocks were kept at −70 ℃ in 10% nonfat milk with 10% glycerol.
Antifungal susceptibility tests were performed by the microdilution method using 96-well microplates. Yeast cells in stock were inoculated onto modified YPD (yeast extract 5 g/L, peptone 10 g/L, glucose 10 g/L) agar plates, and incubated for 24 h at 37 ℃. After replating, cells were cultured in modified YPD broth at 37 ℃ to optical density 1.0 at 540 nm. Further, yeast cells in modified YPD broth at concentration of 5 × 10^4 cells/mL were mixed with equal volumes of serial two-fold dilutions of the peptide in water which started at the highest peptide concentration of 200 µM. Final peptide concentrations in the wells were 100, 50, 25, 12.5, 6.25, 3.125, and 1.56 μM. Controls without defensin were also tested. Plates were incubated at 30 ℃ during 24 h. Yeast growth was estimated using inverted microscope as well as by measuring the optical density at 540 nm. Percentage of growth inhibition was defined as: growth inhibition (%) = ((Acontrol − Asample)/Acontrol) × 100%. All of the experiments were performed twice in triplicate. The t-test was performed to study the statistical difference (p-value) between the means of controls and samples with different peptide concentrations. The experiment with lentil Lens culinaris lipid transfer protein Lc-LTP2 was carried out for comparison.
(Dilution methods test growth across graded concentrations, often in twofold steps.)

Values joined by “and” are separate entries in the source; they are usually repeats but may differ in a detail not shown here. Equal entries are not always repeated. No end group written: not given here.

Take “Lc-def: defensin from lentil Lens culinaris seeds (UniProt:B3F051), recombinant, overexpressed in Escherichia coli (KTCENLSDSFKGPCIPDGNCNKHCKEKEHLLSGRCRDDFRCWCTRNC; disulfide (positions not given here); ends not checked; also: disulfide bonds present, pairing not given here; UniProt B3F051 28-74, looked up)”: the IC50 (C. krusei clinical isolate, microdilution, modified YPD, 30 °C, OD540, twice in triplicate, read-out: concentration causing 50% growth inhibition) was 25 to 50 µM and 25 µM. Besides, the “inhibition of the growth” value reads like this: (50 μM peptide) about 90%; (100 μM peptide) under 100%.
